Results taken from patent US11167039B2, “MET antibody drug conjugates” (priority 2016, dated 2021).
Entries after “also recorded” stand apart in the source; their conditions may differ.

How the values were obtained:
humen fresh hepatocyte = test: Cell killing, fresh hepatocyte; type: cell-based, human; parameters: key: Sensitive; Resistant
Procedure: (§1) Briefly described, 2-3×10^3 cells/well in 100 μL of culture medium may be plated in 96 well plates and incubated overnight at 37° C., 5% CO2. The MET-ADCs, MET antibody(ies), control MMAE or control hIgG4 conjugated to MMAE with cysteine conjugation antibody(ies) may be diluted 1:3 in serum-free culture medium starting from 100 nM (final) in 50 μL as 3× concentrations to the HT-29 cells. At the end of an additional 5-6 days of cell growth at 37° C. in a humidified incubator with 5% CO2, the plates may be equilibrated to room temperature for 30 minutes and 100 μL/well of CellTiter-Glo® reagent (Promega Corp., Fitchburg, Wis.) may then be added to assess cell viability. Cell viability may be determined by measuring luminescence.
(§2) Various tumor cell lines and normal human cells may be tested for MET-ADC induced cell killing activity essentially as described above in Example 10 as assessed for MET receptor density. MET cell surface density was determined by indirect immunofluorescence staining of cell surface antigens on cultured cells using QIFIKIT (Dako). […] Following a forty-five minute incubation, cells may be incubated for 1 hour on ice with FITC conjugated antibody diluted 1:50 in FACS buffer. Then cells may be washed and receptor numbers may be determined by indirect immunofluorescence staining of the QIFIKIT beads using a Becton Dickinson LSRII flow cytometer.

[1] = tested on: pan-AKT phosphorylation (pAKT) in Caki-1 cells; test: Phosphor-AKT bioassay for MET agonist activity in Caki-1 cells; type: cell-based; conditions: 5 μg/mL
Procedure: Because it has been reported that MET agonistic antibodies increased hepatocyte proliferation and toxicity, a phosphor-AKT assay may be used to test MET-ADCs for MET agonist activity. Briefly stated, Caki-1 cells may be starved overnight in serum-free medium with 0.1% BSA and then treated with ADCs or naked MET antibodies at 5 μg/mL for the desired durations. Cell lysates may be analyzed for phosphorylation of pan-AKT by MSD ELISA, for example.

[2] = tested on: pancreatic cancer PDX tumors; test: Pancreatic cancer patient-derived xenograft (PDX) models; type: in vivo, mouse; conditions: 5 mg/kg weekly, four doses
From the text: Body weight can also be assessed regularly.
Pancreatic tumors are known in the art to overexpress MET and have more than 90% KRAS mutations (Yabar, C. S. and Winter, J. M., Gastroenterol Clin N Am 45: 429-445 (2016)). Pancreatic tumor samples from 40 human pancreatic cancer patients were individually implanted into different immunocompromised mice (i.e., each mouse carried one tumor derived from a patient's […] tumor) essentially as described above in this Example 12.

GEO = test: Cell killing, GEO; type: cell-based, human; parameters: key: Sensitive; Resistant; conditions: Colorectal Ca
Procedure: as §1, §2

AOSMC = test: Cell killing, non-tumor AOSMC; type: cell-based, human; parameters: key: Sensitive; Resistant; conditions: aortic smooth muscule cell
Procedure: as §1, §2

KP-4 xenograft = test: KP-4 pancreatic cancer xenograft model; type: in vivo, mouse; conditions: vs control hIgG4-Lys-ADC
Procedure: (§3) Female athymic nude mice age 6- to 7-weeks old are available commercially, including from Harlan Laboratories (Indianapolis, Ind.). The mice are allowed to acclimate for one week and fed ad libitum on a normal low fat (4.5%) diet, which may be continued for the duration of the study. Tumor cells may be purchased from ATCC and may be cultured in cell culture media such as RPMI 1640 (Life Technologies) with L-glutamine, 25 mM HEPES supplemented with 10% FBS and 1 mM Na Pyruvate. Cells may be detached, washed with serum free medium and then resuspended at a final concentration of 50×10^6 cells/mL in serum free RPMI 1640. Tumor cells, approximately 5×10^6, may be injected subcutaneously in the rear flank of subject mice in a 1:1 mixture of serum free growth medium and Matrigel (Becton Dickinson, Bedford, Mass.). Tumor and body weight measurements may be performed twice weekly. Prior to treatment, mice can be randomized based on tumor size using a randomization algorithm. Treatments may be started when the average tumor volume reaches 100 mm^3. […]
(§4) MET-ADCs and control hIgG4-MMAE may be prepared in Phosphate Buffered Saline (PBS) prior to dose. Tumor size may be determined by caliper measurements. […] Log volume data can be analyzed with two-way repeated measures ANOVA by time and treatment using SAS PROC MIXED software (SAS Institutes Inc, Cary, N.C.). […]

MiaPaca-2 = test: Cell killing, MiaPaca-2; type: cell-based, human; parameters: key: Sensitive; Resistant; conditions: MiaPaca-2, PANC Ca
Procedure: as §1, §2

CFPAC-1 = test: Cell killing, CFPAC-1; type: cell-based, human; parameters: key: Sensitive; Resistant; conditions: CFPAC-1, PANC Ca
Procedure: as §1, §2

[3] = tested on: MET expressing tumor cells; test: Correlation of tumor cell MET expression level and sensitivity to MET-ADC; type: cell-based
Procedure: as §1, §2

SW 1990 = test: Cell killing, SW 1990; type: cell-based, human; parameters: key: Sensitive; Resistant; conditions: SW 1990, PANC Ca
Procedure: as §1, §2

Hs746T xenografts = test: Hs746T gastric cancer xenograft model; type: in vivo, mouse; conditions: 3 mg/kg once per week for 4 weeks
Procedure: as §3, §4

LS411N = test: Cell killing, LS411N; type: cell-based, human; parameters: key to Sensitive/ Resistant: Sensitive; Resistant
Procedure: as §1, §2

[4] = tested on: humen fresh activated PBMC; test: Cell killing, fresh activated PBMC; type: cell-based, human; parameters: key: Sensitive; Resistant; conditions: 3 donors
Procedure: as §1, §2

A204 = test: Cell killing, A204; type: cell-based, human; parameters: key: Sensitive; Resistant; conditions: A204, Rhabdomyosarcoma
Procedure: as §1, §2

Caco-2 = test: Cell killing, Caco-2; type: cell-based, human; parameters: key: Sensitive; Resistant; conditions: Caco-2, Colorectal Ca
Procedure: as §1, §2

H1993 = test: Cell killing, H1993; type: cell-based, human; parameters: key: Sensitive; Resistant; conditions: H1993, NSCLC
Procedure: as §1, §2

Cal27 = test: Cell killing, Cal27; type: cell-based, human; parameters: key: Sensitive; Resistant; conditions: Cal27, head and neck cancer
Procedure: as §1, §2

MET-ADC#1: emibetuzumab lysine-conjugated via (2,5-dioxopyrrolidin-1-yl) 2-azidoacetate and Octyne-β-Glucn-MMAE
Sensitive/ Resistant (humen fresh hepatocyte): R | MET agonist activity (induction of pan-AKT phosphorylation) [1]: same low to no agonist activity as its unconjugated parental antibody, emibetuzumab; also recorded: does not have increased agonist activity as compared with emibetuzumab | DCR: disease control rate (CR+PR+SD over total 40) [2]: 60% | PD: progressive disease (% Delta T/C>10%), number of PDX ([2]; total 40): 16 | PR: partial response (% Regression<=−50% and tumor volume>14 mm^3), number of PDX ([2]; total 40): 9 | effect on volume of pancreatic cancer PDX tumors ([2]; vs control hIgG4-ADC): profoundly reduced the volume of the pancreatic cancer PDX tumors | Sensitive/ Resistant (GEO): R | Sensitive/ Resistant (AOSMC): R | anti-tumor activity (KP-4 xenograft): dramatic anti-tumor activity | Sensitive/ Resistant (MiaPaca-2): R | Sensitive/ Resistant (CFPAC-1): R | killing activity compared with MET-ADC #6 ([3]; similar experiments using other cells): superior killing activity than MET-ADC #6 | approximate threshold of MET cell surface density for tumor cell killing ([3]; tumor cells sensitive to MMAE, not secreting HGF): > 32,000 receptor per cells | Sensitive/ Resistant (SW 1990): R | antitumor efficacy (Hs746T xenografts): significantly greater antitumor efficacy than the IgG4 Lys-MMAE control treatments; also recorded: durable and complete tumor regression | cell killing activity in LS411N cells (LS411N; LS411N (BRAF, PIK3) colon cancer cells): killed | Sensitive/ Resistant (LS411N; LS411N, Colorectal Ca): S | Sensitive/ Resistant [4]: R | Sensitive/ Resistant (A204): R | Sensitive/ Resistant (Caco-2): R | Sensitive/ Resistant (H1993): S | Sensitive/ Resistant (Cal27): S
